{
  "source": "patent US20250352524A1",
  "about": "“PREVENTION OF METASTATIC OUTGROWTH USING TEAD INHIBITORS” (Georgetown University, priority 2024, published 2025)",
  "key": {"E0771 cells": {"test_system": "E0771 cells", "assay": "Real Time Cell Analysis, proliferation of E0771 cells", "format": "cell-based, mouse", "settings": "increasing doses of VT107, cell index", "protocol": "E0771 cells were injected into the mammary fat pad of C57BL/6 mice (Johnstone et al., 2015). When primary tumors became palpable at 3 weeks, mice were treated daily with VT107 or vehicle control. Mice weights were monitored throughout treatment (FIG. 8, Panel B). Primary tumors were surgically resected at week 4 and mice were euthanized at week 6 to inspect lungs for metastases (FIG. 9, Panel A)\n(§1) Cell analysis was done using E-plates from xCELLigence, (Agilent, #5469830001) according to the manufacturer's protocol. For cell cytotoxicity, cancer cells (10,000-25,000 cells per well) were seeded and allowed to attach for 1-2 hours prior to the addition of immune cells and/or drug treatments. For cell proliferation, cancer cells were seeded at 5,000-10,000 cells per well with incremental doses of drug treatments or DMSO as a vehicle control. Cell index was measured by changes in electric impedance at 15 min intervals. TEAD inhibitors were obtained from Vivace therapeutics."}, "Jurkat cells": {"test_system": "Jurkat cells", "assay": "Real Time Cell Analysis, cytotoxicity of Jurkat cells towards 4T1 cells", "format": "cell-based, human", "settings": "1 μM VT107 for 24 hours", "protocol": "The hippo pathway has been implicated in T-cell development and function (Du et al., 2014; Ueda et al., 2012). For example, YAP expression is essential for tumor immune suppression by Treg cells that attenuates CD8 T-cell immunity (Geng et al., 2017; Ni et al., 2018; Lebid et al., 2020). […] To investigate whether VT107 directly affected T-cells, T-cells treated with VT107 were co-cultured with 4T1 cells in 2D for 72 hours. […] To further confirm T-cell activation upon TEAD activity reduction, we used Jurkat cells, a CD4 positive human lymphoma cell line (Schneider et al., 1977). […] However, here we show the specific effect of TEAD reduction on granzyme gene expression and degranulation that result in the killing of cancer cells.\nas §1, with “therapeutics. […]” for “therapeutics.”"}, "DCIS:DCISA4 cells": {"test_system": "DCIS:DCISA4 cells", "assay": "DCIS:DCIS-Δ4 mammary fat pad tumors in NOD/SCID mice, lung metastasis", "format": "in vivo", "settings": "for growth rate or final volume of the primary tumors: tumors resected at 4 weeks; for outgrowth of cancer cells disseminated to the lungs: immunofluorescent staining of lungs", "protocol": "Parental ductal carcinoma in situ (DCIS) was mixed with genetically-modified DCIS cells expressing AIB1-Δ4 (“DCIS-Δ4”) (see Sharif et al., 2021) at a 4:1 ratio, and the mix was injected into the mammary fat pad (MFP) of the mice. One group of mice received 30 mg/kg of the TEAD inhibitor VT107 (“iTEAD”) and the other group received vehicle treatment by daily oral gavage for 4 weeks. The primary tumors were removed by survival surgery. There was no difference observed in the growth rate or final volume of the primary tumors.\nLung tissues were subjected to RNA-Seq analysis, and Gene Set Enrichment Analysis (GSEA) was used to determine altered signaling pathways upon iTEAD treatment.\nTo further examine the effect of TEAD inhibition on the myeloid compartment of the lung, a human breast cancer cell line MCFDCIS (DCIS) that metastasizes to the lungs when a small population of cells (DCISA4) expresses an isoform of the transcription coactivator amplified in breast cancer 1 (Sharif et al., 2021), was used. DCIS:DCISA4 cells were injected into the mammary fat pad of NOD/SCID mice. Mice were treated daily with VT107. Tumors were surgically removed at week 4 and lungs were monitored for metastases for another 4 weeks without receiving additional treatment (FIG. 13, Panel B). Mouse body weights were measured weekly throughout the course of treatment (FIG. 13, Panel C). […] All mice in the vehicle treated group developed lung metastases as previously reported (Sharif et al., 2021). […] RNA was extracted from lung tissues to further examine the host stroma affected by VT107. RNA sequencing reads from the lungs were aligned to the mouse transcriptome to shed light on the host tissue changes in response to treatment in the presence of seeded cancer cells. […] These observations again show a shift in the inflammatory phenotypes in the microenvironment which could be responsible for the halt in the metastatic outgrowth of seeded cancer cells in the treated group.\nStudies in mice were reviewed and approved by the Georgetown University Animal Care and Use Committee (GUACUC). Animals were randomized to receive vehicle control (DMSO) or VT107. Treatment was formulated in 5% DMSO, 10% solutol and 85% D5W; D5W. 5% glucose and administered daily by oral gavage. Five hundred thousand cells were injected into the mammary fat pad of age-matched 8 weeks old female NOD/SCID or C57/B16 mice purchased from Charles River or Jackson Laboratory, respectively. A hundred thousand 4T1 cells were injected into the tail veins of BALB/c mice purchased from Jackson Laboratory. Experimental timelines, treatment start times and durations are indicated in the figure diagrams and figure legends. Tissues collected were preserved in RNAlater (Thermofisher, #AM7020) or fixed in 10% formalin for histology analysis.\nThe total RNA from tissue or cell lines was extracted using RNeasy Mini Kit (Qiagen, #74104) according to the manufacturer's instructions. Total RNA integrity was assessed with the Agilent 2100 Bioanalyzer. The library preparation and next-generation sequencing (NGS) were performed at Novogene Corporation Inc. (Sacramento, CA, USA). At least triplicate samples per experimental condition were analyzed, raw sequence reads (150 bp paired end, […] average reads/sample) were aligned to the human or mouse transcriptome using STAR, and aligned reads translated to expression counts via featurecounts, followed by a standard edgeR (RRID:SCR_012802) pipeline to identify DEGs under specific conditions. Ingenuity pathway analysis (IPA, RRID:SCR_008653) was undertaken using a list of all differentially expressed genes with a cutoff of p-value less than 0.05 to identify signaling pathways and upstream regulators."}, "[1]": {"settings": "pathway analysis of lung RNA sequencing, VT107 vs vehicle"}},
  "note": "Entries after “also recorded” stand apart in the source; their conditions may differ.",
  "data": [
    {"substance": "VT107", "values": [
      {"measurement": "proliferation of E0771 in vitro", "setting": "E0771 cells", "result": "did not impact"},
      {"measurement": "Jurkat cytotoxicity towards co-cultured 4T1 cells", "setting": "Jurkat cells", "result": "enhanced cytotoxicity"},
      {"measurement": "development of lung metastases", "setting": "DCIS:DCISA4 cells; 30 mg/kg daily oral gavage for 4 weeks vs vehicle, H&E lung sections, listed as iTEAD", "result": "did not develop lung metastases; also recorded: significantly reduced"},
      {"measurement": "growth rate or final volume of the primary tumors", "setting": "DCIS:DCISA4 cells; 30 mg/kg daily oral gavage for 4 weeks vs vehicle", "result": "similar"},
      {"measurement": "growth rate or final volume of the primary tumors", "setting": "DCIS:DCISA4 cells; 30 mg/kg daily oral gavage for 4 weeks vs vehicle, listed as iTEAD", "result": "no difference; also recorded: no effect"},
      {"measurement": "outgrowth of cancer cells disseminated to the lungs", "setting": "DCIS:DCISA4 cells; 30 mg/kg daily", "result": "failed to grow into overt metastases"},
      {"measurement": "outgrowth of cancer cells disseminated to the lungs", "setting": "DCIS:DCISA4 cells; 30 mg/kg daily, listed as iTEAD", "result": "halted outgrowth; also recorded: unable to outgrow"},
      {"measurement": "mice with no overt lung metastases", "setting": "DCIS:DCISA4 cells; 30 mg/kg daily, lungs monitored 4 weeks after tumor removal, all vehicle mice developed metastases", "result": "4 out of 5"},
      {"measurement": "Toll-like receptor 4 (TLR4) signaling pathway in lung tissue (GSEA)", "setting": "DCIS:DCISA4 cells; RNA-Seq of lung tissue, iTEAD vs vehicle", "result": "drop and downregulation"},
      {"measurement": "human actin relative to mouse actin in lung tissues by qPCR", "setting": "DCIS:DCISA4 cells; VT107-treated mice", "result": "presence of DCIS cells"},
      {"measurement": "myeloid cell activating pathways, acute phase response signaling and PD-L1 immunotherapy pathways in lungs", "setting": "DCIS:DCISA4 cells; [1]", "result": "upregulation"},
      {"measurement": "signaling pathways implicated in pulmonary and hepatic fibrosis, cardiac hypertrophy and liver injury in lungs", "setting": "DCIS:DCISA4 cells; [1]", "result": "downregulated"}
    ]}
  ]
}
